{"source": "ChEMBL document CHEMBL5500370", "about": "“Discovery of potent and novel dual NAMPT/BRD4 inhibitors for efficient treatment of hepatocellular carcinoma” (Eur J Med Chem, 2024)", "key": {"[1]": {"experiment": "Antiproliferative activity against human LX2 cells incubated for 120 hrs by MTT assay", "format": "toxicity, cell-based", "details": "LX-2 cells"}, "HCCLM3 [2]": {"tested_on": "HCCLM3", "experiment": "Antiproliferative activity against NMN/NAMN-treated human HCCLM3 cells incubated for 120 hrs by MTT assay", "format": "functional, cell-based"}, "[3]": {"target": "Bromodomain-containing protein 2 (Homo sapiens, UniProt P25440)", "sequence (P25440 whole entry)": "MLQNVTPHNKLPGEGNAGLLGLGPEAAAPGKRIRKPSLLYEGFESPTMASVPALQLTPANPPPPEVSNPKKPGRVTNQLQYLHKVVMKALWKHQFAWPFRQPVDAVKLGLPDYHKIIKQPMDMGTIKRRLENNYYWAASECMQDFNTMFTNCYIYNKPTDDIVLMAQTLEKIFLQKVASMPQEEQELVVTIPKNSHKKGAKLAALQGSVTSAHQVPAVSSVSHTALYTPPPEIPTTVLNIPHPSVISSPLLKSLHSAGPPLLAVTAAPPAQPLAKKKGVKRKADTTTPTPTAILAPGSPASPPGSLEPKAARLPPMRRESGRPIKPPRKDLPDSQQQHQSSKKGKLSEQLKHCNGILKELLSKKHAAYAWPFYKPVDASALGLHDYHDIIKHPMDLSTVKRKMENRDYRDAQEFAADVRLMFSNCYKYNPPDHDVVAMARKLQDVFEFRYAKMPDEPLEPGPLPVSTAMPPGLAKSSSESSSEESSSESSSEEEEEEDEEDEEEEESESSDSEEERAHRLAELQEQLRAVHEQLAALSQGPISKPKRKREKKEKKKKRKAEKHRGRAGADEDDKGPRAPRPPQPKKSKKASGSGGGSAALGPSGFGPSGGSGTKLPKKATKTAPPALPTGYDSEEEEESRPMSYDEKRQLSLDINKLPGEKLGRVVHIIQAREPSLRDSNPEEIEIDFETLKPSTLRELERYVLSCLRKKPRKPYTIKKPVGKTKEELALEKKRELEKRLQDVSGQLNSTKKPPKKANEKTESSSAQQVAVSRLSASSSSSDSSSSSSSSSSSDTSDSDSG", "experiment": "Inhibition of BRD2 BD1/2 (unknown origin) incubated for 120 mins by TR-FRET assay"}, "[4]": {"target": "Bromodomain-containing protein 3 (Homo sapiens, UniProt Q15059)", "sequence (Q15059 whole entry)": "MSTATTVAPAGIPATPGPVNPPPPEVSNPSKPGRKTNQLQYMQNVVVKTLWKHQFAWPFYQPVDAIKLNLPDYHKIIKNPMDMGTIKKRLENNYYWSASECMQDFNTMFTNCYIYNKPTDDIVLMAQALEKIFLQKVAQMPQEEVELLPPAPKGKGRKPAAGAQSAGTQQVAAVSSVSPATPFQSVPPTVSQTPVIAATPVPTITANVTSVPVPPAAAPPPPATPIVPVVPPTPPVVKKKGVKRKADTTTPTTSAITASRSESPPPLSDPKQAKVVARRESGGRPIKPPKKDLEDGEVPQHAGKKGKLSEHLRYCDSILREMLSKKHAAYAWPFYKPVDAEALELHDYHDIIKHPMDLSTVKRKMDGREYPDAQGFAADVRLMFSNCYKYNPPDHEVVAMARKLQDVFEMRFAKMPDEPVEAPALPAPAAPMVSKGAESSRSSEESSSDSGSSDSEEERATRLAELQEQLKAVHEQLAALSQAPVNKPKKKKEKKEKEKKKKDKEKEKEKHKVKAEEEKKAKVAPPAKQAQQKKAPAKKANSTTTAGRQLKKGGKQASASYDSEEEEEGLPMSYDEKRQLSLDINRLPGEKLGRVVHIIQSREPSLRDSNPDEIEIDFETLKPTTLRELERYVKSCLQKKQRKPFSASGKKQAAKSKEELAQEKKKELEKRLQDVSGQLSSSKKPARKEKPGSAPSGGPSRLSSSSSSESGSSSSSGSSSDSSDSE", "experiment": "Inhibition of BRD3 BD1/2 (unknown origin) incubated for 120 mins by TR-FRET assay"}, "[5]": {"target": "Bromodomain-containing protein 4 (Homo sapiens, UniProt O60885)", "experiment": "Inhibition of BRD4 BD2 (unknown origin) incubated for 120 mins by TR-FRET assay"}, "Hep 3B2 [6]": {"tested_on": "Hep 3B2", "experiment": "Downregulation of NAPRT level in human Hep3B cells at 1 to 10 uM measured after 72 hrs by immunoblot analysis", "format": "functional, cell-based", "details": "dose 1-10 µM"}, "[7]": {"target": "Nicotinamide phosphoribosyltransferase (Homo sapiens, UniProt P43490)", "sequence (P43490 whole entry, looked up)": "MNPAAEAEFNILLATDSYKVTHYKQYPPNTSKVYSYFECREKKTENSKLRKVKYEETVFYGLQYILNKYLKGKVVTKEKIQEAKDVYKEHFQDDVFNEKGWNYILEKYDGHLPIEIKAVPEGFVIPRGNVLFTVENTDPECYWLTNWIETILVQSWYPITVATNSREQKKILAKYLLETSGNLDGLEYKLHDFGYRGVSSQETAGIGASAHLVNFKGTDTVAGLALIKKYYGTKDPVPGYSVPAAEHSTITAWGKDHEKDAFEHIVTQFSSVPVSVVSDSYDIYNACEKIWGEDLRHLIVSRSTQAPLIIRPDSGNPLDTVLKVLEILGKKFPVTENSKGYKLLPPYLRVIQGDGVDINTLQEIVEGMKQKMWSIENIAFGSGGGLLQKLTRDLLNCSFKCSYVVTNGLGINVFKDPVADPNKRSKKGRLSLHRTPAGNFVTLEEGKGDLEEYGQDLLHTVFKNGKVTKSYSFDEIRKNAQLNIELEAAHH", "experiment": "Inhibition of NAMPT in human Hep3B cells assessed as decrease in NAD+ level at 10 uM measured after 72 hrs by WST-8 assay", "format": "cell-based"}, "Hep 3B2 [8]": {"tested_on": "Hep 3B2", "experiment": "Induction of apoptosis in human Hep3B cells assessed as late apoptotic cells at 1 uM measured after 72 hrs by Annexin V-FITC/PI staining based flow cytometry (reference value: 1.05 %)", "format": "functional"}, "Hep 3B2 [9]": {"tested_on": "Hep 3B2", "experiment": "Induction of cell cycle arrest at S phase in human Hep3B cells at 5 uM measured after 72 hrs by PI/RNase staining based flow cytometry (reference value: 31.90 %)", "format": "functional"}, "Hep 3B2 [10]": {"tested_on": "Hep 3B2", "experiment": "Induction of cell cycle arrest at G2/M phase in human Hep3B cells at 10 uM measured after 72 hrs by PI/RNase staining based flow cytometry (reference value: 11.37 %)", "format": "functional"}, "HCCLM3 [11]": {"tested_on": "HCCLM3", "experiment": "Antitumor activity against human HCCLM3 cells xenografted in BALB/c nude mouse at 40 mg/kg, ip for 27 days relative to control", "format": "functional", "details": "HCCLM3, 648 h, time 27 day, read-out: TGI"}, "HCCLM3 [12]": {"tested_on": "HCCLM3", "experiment": "In vivo inhibition of NAMPT in human HCCLM3 cells xenografted in BALB/c nude mouse assessed as reduction in NAD+ level in tumor tissue administered intraperitoneally for 27 days", "format": "functional, organism-based", "details": "dose 40-80 mg/kg, route ip, time 27.0 day"}, "Huh-7": {"tested_on": "Huh-7", "experiment": "cells", "details": "Homo sapiens, Huh-7, 120 h"}}, "note": "Active and inactive are the calls of the source. The calls are words filed in the database; no cut-off is given here.", "data": [{"smiles": "Cc1sc2c(c1C)C(c1ccc(Cl)cc1)=N[C@@H](CC(=O)NCCCNC(=O)/C=C/c1cccnc1)c1nnc(C)n1-2", "values": [{"measurement": "IC50 at 120 h", "setting": "[1]", "result": 9510, "unit": "nM"}, {"measurement": "Activity", "setting": "HCCLM3 [2]", "result": "inactive"}, {"measurement": "IC50", "setting": "[3]", "result": 489, "unit": "nM"}, {"measurement": "IC50", "setting": "[4]", "result": 122, "unit": "nM"}, {"measurement": "IC50", "setting": "[5]", "result": 41, "unit": "nM"}, {"measurement": "Activity", "setting": "Hep 3B2 [6]", "result": "Active"}, {"measurement": "inhibition", "setting": "[7]", "result": "Active"}, {"measurement": "Activity", "setting": "Hep 3B2 [8]", "result": 4.58, "unit": "%"}, {"measurement": "Activity", "setting": "Hep 3B2 [9]", "result": 20.57, "unit": "%"}, {"measurement": "Activity", "setting": "Hep 3B2 [10]", "result": 5.54, "unit": "%"}, {"measurement": "inhibition in vivo at 40 mg/kg", "setting": "HCCLM3 [11]", "result": 37.2, "unit": "%"}, {"measurement": "Activity", "setting": "HCCLM3 [12]", "result": "Active"}, {"measurement": "IC50", "setting": "Huh-7", "result": 6490, "unit": "nM"}]}]}
